Experiments:
V79 cells = assay: Growth of control and MNNG-treated V79 cells incubated with MPA; format: cell-based, Chinese hamster; settings: untreated 5.0±0.3
parental V79 cells = assay: Resistance of parental cells to MPA cytotoxicity; format: cell-based, Chinese hamster
[1] = tested on: VM1 through VM4 variants of V79 cells; assay: Resistance of stepwise-selected cell variants to MPA cytotoxicity; format: cell-based, Chinese hamster
Method: According to the present invention, the resistance level of one of these cell variants was further increased by a stepwise selection in the presence of increasing concentrations of MPA. After adaptation to the higher concentration of MPA, the cells were seeded in medium containing an increased concentration of MPA at 200 cells per 60-mm petri dish, and MPA-resistant colonies were isolated 8 days later.

[2] = tested on: IMP1 cell clone (transfected V15 hamster cells); settings: mycophenolic acid 2 μg/mL in culture medium
Method: After introduction of the construct into the hamster cells, mycophenolic acid (2 μg/mL) was added to the culture medium to select for those cells that had integrated the construct into their genetic material. Those cells that have integrated the construct into their genetic material produce the IMPDH enzyme and are therefore resistant to the cytotoxic effects of mycophenolic acid.
[Dulbecco's modified MEM containing 5% fetal bovine serum, aminopterin (2 μg/mL), and mycophenolic acid (25 μg/mL), and supplemented with hypoxanthine (15 μg/mL), thymidine (10 μg/mL), and xanthine (250 μg/mL)]. The ability of the cells to grow in the selective medium is attributable to the production of the E. coli gpt enzyme, which catalyzes the production of xanthine monophosphate from the reaction of xanthine and phosphoribosyl pyroposphate. Presence of the enzyme compensates for the purine de novo synthetic block imposed by the presence of aminopterin and MPA.

E. coli IMPDH enzyme = E. coli IMPDH enzyme (Escherichia coli, UniProt P0ADG7); settings: unlike mammalian cell enzymes; cited from earlier work
[3] = target: purified Chinese hamster IMPDH (Cricetulus griseus, UniProt P12269); assay: Kinetic studies of purified IMPDH (IMP-dependent NAD reduction, absorbance at 340 nm)
Chain of purified Chinese hamster IMPDH (P12269 whole entry): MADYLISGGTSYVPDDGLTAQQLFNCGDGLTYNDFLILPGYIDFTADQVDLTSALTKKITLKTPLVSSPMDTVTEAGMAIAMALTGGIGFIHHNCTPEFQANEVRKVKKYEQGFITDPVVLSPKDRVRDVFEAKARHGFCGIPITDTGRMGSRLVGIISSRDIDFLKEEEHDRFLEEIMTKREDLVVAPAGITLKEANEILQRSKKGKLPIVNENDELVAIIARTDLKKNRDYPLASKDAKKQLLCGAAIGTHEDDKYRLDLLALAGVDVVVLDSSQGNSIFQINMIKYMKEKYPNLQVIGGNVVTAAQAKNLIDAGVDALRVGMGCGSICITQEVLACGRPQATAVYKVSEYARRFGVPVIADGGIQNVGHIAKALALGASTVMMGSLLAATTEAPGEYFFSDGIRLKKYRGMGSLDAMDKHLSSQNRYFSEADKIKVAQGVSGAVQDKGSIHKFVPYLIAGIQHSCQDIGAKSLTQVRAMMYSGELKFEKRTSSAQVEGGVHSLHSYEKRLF
Method: Kinetic studies were carried out by varying the substrate conditions. In all cases, linear reciprocal plots were defined by simple regression analysis of the data.

Chain of E. coli IMPDH enzyme (P0ADG7 whole entry): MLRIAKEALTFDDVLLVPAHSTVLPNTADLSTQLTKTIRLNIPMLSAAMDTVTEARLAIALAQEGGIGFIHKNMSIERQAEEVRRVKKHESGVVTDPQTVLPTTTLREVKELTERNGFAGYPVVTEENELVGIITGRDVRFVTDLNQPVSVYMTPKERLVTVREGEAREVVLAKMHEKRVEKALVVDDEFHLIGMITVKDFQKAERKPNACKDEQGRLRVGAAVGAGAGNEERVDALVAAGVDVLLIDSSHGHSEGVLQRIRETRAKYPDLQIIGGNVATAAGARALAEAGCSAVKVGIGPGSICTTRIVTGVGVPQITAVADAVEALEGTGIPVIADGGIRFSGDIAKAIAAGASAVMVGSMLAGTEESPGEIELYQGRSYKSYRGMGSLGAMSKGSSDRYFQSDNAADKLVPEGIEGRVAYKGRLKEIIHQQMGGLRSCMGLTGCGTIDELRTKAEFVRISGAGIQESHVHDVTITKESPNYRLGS

Km ([3]; substrate of Chinese hamster enzyme, linear reciprocal plots) [µM] | Structure (SMILES) | cells per Petri dish after 5 days of growth, mean (±SD) (V79 cells; MPA at 0.1 μg/mL) | cells per Petri dish after 5 days of growth, mean (±SD) (V79 cells; MPA at 0.3 μg/mL) | MPA concentration to which cells are resistant (parental V79 cells) [µg/mL] | MPA concentration to which cells are resistant ([1]; VM1 variant) [µg/mL] | MPA concentration to which cells are resistant ([1]; VM2 variant) [µg/mL] | MPA concentration to which cells are resistant ([1]; VM3 variant) [µg/mL] | MPA concentration to which cells are resistant ([1]; VM4 variant) [µg/mL] | resistance of cell clone to cytotoxic effects [2] | sensitivity to the inhibitory effect (E. coli IMPDH enzyme) | Ki ([3]; sensitivity of Chinese hamster enzyme to MPA)
 | COc1c(C)c2c(c(O)c1C/C=C(\C)CCC(=O)O)C(=O)OC2 [MPA, mycophenolic acid] | 1.4±0.2 ×10^6 cells per Petri dish | 0.2±0.05 ×10^6 cells per Petri dish | 0.1 | 5 | 10 | 25 | 50 | resistant | insensitive | nanomolar range
29 | NC(=O)c1ccc[n+]([C@@H]2O[C@H](COP(=O)([O-])OP(=O)(O)OC[C@H]3O[C@@H](n4cnc5c(N)ncnc54)[C@H](O)[C@@H]3O)[C@@H](O)[C@H]2O)c1 [NAD] |  |  |  |  |  |  |  |  |  | 
